Measurements taken from PubChem BioAssay (NCI).
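1) Cells in 96-well plates. 2) Compound, 48 h, 5 concentrations. 3) Linear interpolation between surrounding doses. 4) Unreached endpoint = highest concentration. GI50 is the concentration that inhibits growth by half. TGI: total growth inhibition.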

What was measured:
Test in all cases: inhibition of tumour cell growth, NCI panel, 48 h; in the data active = GI50 below about 0.43 µM; inactive = the rest
[1] = system: 786-0 renal
[2] = system: A498 renal
[3] = system: A549 NSCLC
[4] = system: ACHN renal
[5] = system: BT-549 breast
[6] = system: CAKI-1 renal
[7] = system: CCRF-CEM leukemia
[8] = system: COLO 205 colon
[9] = system: DU-145 prostate
[10] = system: EKVX NSCLC
[11] = system: HCC-2998 colon
[12] = system: HCT-116 colon
[13] = system: HCT-15 colon
[14] = system: HL-60(TB) leukemia
[15] = system: HOP-62 NSCLC
[16] = system: HOP-92 NSCLC
[17] = system: HS 578T breast
[18] = system: HT29 colon
[19] = system: IGROV1 ovarian
[20] = system: K-562 leukemia
[21] = system: KM12 colon
[22] = system: LOX IMVI melanoma
[23] = system: M14 melanoma
[24] = system: MALME-3M melanoma
[25] = system: MCF7 breast
[26] = system: MDA-MB-231 breast
[27] = system: MDA-MB-435
[28] = system: MOLT-4 leukemia
[29] = system: NCI-H226 lung
[30] = system: NCI-H23 lung
[31] = system: NCI-H460 lung
[32] = system: NCI-H522 lung
[33] = system: NCI/ADR-RES ovarian
[34] = system: OVCAR-3 ovarian
[35] = system: OVCAR-4 ovarian
[36] = system: OVCAR-5 ovarian
[37] = system: OVCAR-8 ovarian
[38] = system: PC-3 prostate
[39] = system: RPMI-8226 leukemia
[40] = system: RXF 393 renal
[41] = system: SF-268 CNS
[42] = system: SF-295 CNS
[43] = system: SF-539 CNS
[44] = system: SK-MEL-2 melanoma
[45] = system: SK-MEL-28 melanoma
[46] = system: SK-MEL-5 melanoma
[47] = system: SK-OV-3 ovarian
[48] = system: SN12C renal
[49] = system: SNB-19 CNS
[50] = system: SNB-75 CNS
[51] = system: SR leukemia
[52] = system: SW-620 colon
[53] = system: TK-10 renal
[54] = system: U251 CNS
[55] = system: UACC-257 melanoma
[56] = system: UACC-62 melanoma
[57] = system: UO-31 renal

C[C@H](Nc1ccc2c(c1)OCCn1cc(N3C(=O)OC[C@H]3C(F)F)nc1-2)C(N)=O
5.12 µM: TGI [50]
active: GI50 [14] 0.413 µM | GI50 [16] 0.183 µM | GI50 [18] 0.153 µM | GI50 [19] 0.0199 µM | GI50 [25] 0.0354 µM | GI50 [36] 0.421 µM | GI50 [47] 0.0307 µM | GI50 [50] 0.0619 µM
10.2 µM: TGI [2]
40.4 µM: TGI [22]
43.8 µM: TGI [43]
0.809 µM: TGI [47]
0.215 µM: TGI [19]
16.4 µM: TGI [16]
65.3 µM: TGI [26]
> 100 µM: TGI [1] | TGI [3] | TGI [4] | TGI [5] | TGI [6] | TGI [7] | TGI [8] | TGI [9] | TGI [10] | TGI [11] | TGI [12] | TGI [13] | TGI [14] | TGI [15] | TGI [18] | TGI [20] | TGI [21] | TGI [23] | TGI [24] | TGI [25] | TGI [27] | TGI [28] | TGI [29] | TGI [30] | TGI [31] | TGI [32] | TGI [33] | TGI [34] | TGI [35] | TGI [37] | TGI [38] | TGI [39] | TGI [41] | TGI [42] | TGI [44] | TGI [45] | TGI [46] | TGI [48] | TGI [49] | TGI [51] | TGI [52] | TGI [54] | TGI [55] | TGI [56] | TGI [57]
45.8 µM: TGI [40]
> 91.2 µM: TGI [53]
inactive: GI50 [1] 9.95 µM | GI50 [2] 2.09 µM | GI50 [3] 4.82 µM | GI50 [4] 5 µM | GI50 [5] 5.4 µM | GI50 [6] 4.88 µM | GI50 [7] 7.93 µM | GI50 [8] 2.3 µM | GI50 [9] 20.3 µM | GI50 [10] 4.91 µM | GI50 [11] 1.92 µM | GI50 [12] 17.1 µM | GI50 [13] 0.52 µM | GI50 [15] 17.5 µM | GI50 [17] 1.77 µM | GI50 [20] > 100 µM | GI50 [21] 46.9 µM | GI50 [22] 4.8 µM | GI50 [23] 68.5 µM | GI50 [24] > 20.7 µM | GI50 [26] 16.4 µM | GI50 [27] 25.6 µM | GI50 [28] 2.89 µM | GI50 [29] > 62 µM | GI50 [30] 38.5 µM | GI50 [31] 1.08 µM | GI50 [32] > 100 µM | GI50 [33] > 69.9 µM | GI50 [34] 6.26 µM | GI50 [35] 79.4 µM | GI50 [37] > 68.3 µM | GI50 [38] 3.81 µM | GI50 [39] 31.3 µM | GI50 [40] 5.56 µM | GI50 [41] 29 µM | GI50 [42] 7.8 µM | GI50 [43] 3.12 µM | GI50 [44] > 100 µM | GI50 [45] 7.3 µM | GI50 [46] 20.8 µM | GI50 [48] 13 µM | GI50 [49] 25.3 µM | GI50 [51] 38.6 µM | GI50 [52] 20.5 µM | GI50 [53] 0.517 µM | GI50 [54] > 77.6 µM | GI50 [55] 11.5 µM | GI50 [56] 3.05 µM | GI50 [57] 1.57 µM
> 82.6 µM: TGI [36]
68.1 µM: TGI [17]
